Source: patent US20180265867A1, “NUCLEIC ACID MOLECULES WITH ENHANCED ACTIVITY” (priority 2015, published 2018)
d = 2'-deoxy (DNA); r = 2'-OH (RNA)

Columns and labels:
[1] = tested on: A2780 human ovarian cancer cells; assay: Cell viability (ApoTox-Glo Triplex Assay) in A2780 cells; type: cell-based; conditions: 10 nM to 1000 nM, 48 h (FIG. 15)
Method: Cell viability study of 5-FU and siRNA derivatives bearing 5FU molecules were performed using, ApoTox-Glo™ Triplex Assay kit following manufacturer's protocol. Briefly, A2780 human ovarian cancer cells were seeded in 384 well BD Facon black plates (1000 cells in 50 μL/well) using automated Biomek FX pipetting workstation and incubated at 37° C. for 24 h for cell attachment. Stock solution of 5FU, siRNA-5FU2 and siRNA 5FU5 was prepared in cell culture medium (DMEM) respectively. siRNA-5FU2 and siRNA 5FU5 corresponds to Stat3 siRNA bearing 2 or 5 molecules of 5FU at the 3′end of the sense strand. After 24 h, different volume of stock solution was added to each well using non-contact acoustic dispenser (Echo 555), to obtain a gradient concentration ranging from 10 nM to 1000 nM and incubated for additional 48 h at 37° C. After 48 h, 20 μl of medium was treated with 5 μl of cell viability assay reagent, containing both GF-AFC substrate and bis-AAF-R110 substrate and incubated for 30 min at 37° C. Fluorescence values were recorded at two wavelength sets: 400Ex/505Em (Viability) and 485Ex/520Em (Cytotoxicity) using Envision Multilabel Plate Reader and the cell viability were obtained as a percentage of the untreated control (100% cell viability). […] All the cell experiments were measured in triplicate.

Ctnnb1 (β-Catenin) = assay: Ctnnb1 expression in MC3T3-E1 cells by quantitative RT-PCR; type: cell-based, mouse
Method: (§1) MC3T3-E1 cells were cultured in α-MEM (Sigma-Aldrich, Haverhill, UK) medium containing 10% FBS, 1% L-Glutamine, and 1% antibiotics (PeSt) at 37° C. with 5% CO2. One day prior to the miRNA treatment, 35,000 cells were plated per each well of a 24-well plate. On the experiment day, cells were replaced with 2% heat inactivated-FBS containing α-MEM medium with 1% L-Glutamine, and 1% antibiotics (PeSt). miR-34a-CP (final concentration: 50 nM) was given to the each well. Mirvana scrambled miRNA mimic was used as a negative control.
After 24 hours of transfection, and incubation, RNA extraction was performed by using miRCURY RNA Isolation Kit—Cell and Plant (#300100) and protocol from Exiqon, Vedbæk, Denmark. RNA samples were treated with DNase for 30 minutes at 37 degrees, thereafter inactivated with a DNase inactivation solution (TUTRBO DNase AM2238 thermofisher). Thereafter, RNA concentrations were measured using NanoDrop ND-1000 from NanoDrop Technologies, Wilmington, Del.
The cDNA was made from the total RNA using High Capacity cDNA reverse transcription kit (Applied Biosystems, USA). Reactions were performed on a 96-well Bio-Rad Thermal Cycler PCR System at 37° C. for 60 minutes, and at 95° C. for 5 min respectively. Real-time PCR reactions were performed as follows: 10 μl of 2×TaqMan® Universal PCR Master Mix, no AmpErase® UNG (Applied Biosystems, USA), 9 μl 1:5 diluted cDNA, and 1 μl of TaqMan gene specific assay mix. Final volume of the reaction mix was 20 uL. Internal control gene beta-actin (ACTB) (Applied Biosystems, USA) was selected as control for normalization of TaqMan data. The qRT-PCR reaction comprised a non-template control of cDNA in order to rule out any non-specific reading. Taqman probes for Ctnnb1, Sox9, Actb, were obtained from Applied Biosystems. The qRT-PCR amplification was carried out using the Bio-Rad qRT-PCR Thermocycler.
In order to achieve the transfection reagent free delivery of therapeutically potential microRNAs, we tested miR-34a and compared with miR-34a-CP. Since microRNAs unlike siRNAs have multiple targets in the cell, and there is a necessity to reduce the off-target and undesirable effects if any, we have also designed siRNA model siR-34a-CP as stated above. We have used mouse preosteoblast cell line MC3T3-E1 obtained from calvarial bone for the in-vitro functional validation of cell-penetrating molecules. On the day before transfection experiment, 35000 MC3T3-E1 cells were cultured per each well of the 24-well culture plate in alpha-Minimum Essential Medium with 10% heat inactivated FBS, 1% L-Glutamine, 1% antibiotics (Pe/St). […] 5% CO2. Thereafter, RNA extraction, cDNA preparation, and quantitative real-time PCR was performed by using TaqMan procedure.

SOX9 = SOX9 expression in MC3T3-E1 cells by real-time PCR; type: cell-based, mouse; conditions: MC3T3-E1 cells (FIG. 13)
Method: as §1
After 24 hours of transfection, and incubation, RNA extraction was performed by using miRCURY RNA Isolation Kit—Cell and Plant (#300100) and protocol from Exiqon, Vedbæk, Denmark. […] Thereafter, RNA concentrations were measured using NanoDrop ND-1000 from NanoDrop Technologies, Wilmington, Del.
The cDNA was made from the total RNA using High Capacity cDNA reverse transcription kit (Applied Biosystems, USA). […] The qRT-PCR reaction comprised a non-template control of cDNA in order to rule out any non-specific reading. […]
Since overexpression of Ctnnb1 is indicative of osteogenic differentiation of cells, we determined the expression of transcription factor that could be activated. For this purpose, we measured the levels of […] marker SOX9 that is implicated in endochondral ossification.

Compound	cytotoxicity [1]	Ctnnb1 expression (Ctnnb1 (β-Catenin); 50 nM, 24 h, alone without transfection reagent (FIG. 11))	Ctnnb1 expression (Ctnnb1 (β-Catenin); without transfection reagent MaTra (FIG. 12))	SOX9 levels (SOX9)
O=c1[nH]cc(F)c(=O)[nH]1 [5FU, 5-Fluorouracil]	dose dependent cytotoxicity	–	–	–
miR-34a-CP: Cell penetrating miR-34a, sense SEQ ID NO: 22 with dA5, antisense SEQ ID NO: 23 (sense CAAUCAGCAAGUAUACUGCCCUAAAAA; antisense UGGCAGUGUCUUAGCUGGUUGU; sense: sugars from the 5' end r22 d5, backbone not given here; antisense: RNA, backbone not given here)	–	up regulation of Ctnnb1	up regulation of Ctnnb1	upregulated
